From patent US11879140B2, “P21 mRNA targeting DNAzymes” (1E Therapeutics Ltd., priority 2020, dated 2024)

These substances were tested on human p21 mRNA (assay: In vitro cleavage assay of human p21 mRNA). Settings: in vitro cleavage of p21 mRNA (SEQ ID NO: 1); RNA substrate 500 nM, 37° C. 60 min, agarose gel.
Format: biochemical
Excerpt: Total RNA was isolates from senescent IMR-90 cells using Nucleospin® RNA kit (Macherey-Nagel™). cDNA was synthesized with gene-specific reverse primers using M-MLV Reverse Transcriptase (Promega), according to the manufacturer's protocol. To generate template for in vitro transcription (IVT) reaction, the cDNA was PCR amplified using KAPA Taq EXtra HotStart® ReadyMix™ PCR Kit (R&D). PCR product was run on 1.5% agarose TAE gel, the correct band size was cut and DNA was cleaned using Wizard® SV Gel and PCR Clean-Up System kit (Promega). IVT was performed using HiScribe™ T7 High Yield RNA Synthesis Kit (NEB). Samples were then treated with DNase I (New England Biolabs) and incubated for 15 minutes at 37° C. IVT product was run on 1.5% agarose TBE gel, the correct band size was cut and RNA was cleaned using QIAquick® Gel Extraction Kit (Qiagen). See primer sequences in Table 1, below.
RNA substrate was diluted with Molecular Biology Grade Water (Biological Industries) and used in in vitro cleavage assay. A 20 μl reaction system comprising RNA substrate (final concentration 500 nM), 2 μl 10× reaction buffer (50 mM Tris-HCl pH 7.4, 100 mM NaCl, 10 mM MgCl2) and 1 μl DNAzyme (10 μM) (as depicted in Table 2, below) was mixed. Reactions were incubated at 37° C. for 60 min. 2×RNA L.D. (Thermo Fisher) was added to each sample. Samples were heated at 70° C. for 30 sec, centrifuged and loaded onto 1.5% agarose TBE gels. Quantification was performed using Image Lab software (Bio Rad).
With “DNAzyme 1736: SEQ ID NO: 58: CCATTGAGtccgagccggacgaGGGGGTGGG (DNA CCATTGAGTCCGAGCCGGACGAGGGGGTGGG; DNA, backbone and methylation of C not given here)” the Validated cleavage was “validated for mediating cleavage of p21 mRNA”. For “DNAzyme 1742: SEQ ID NO: 59: TCCAGTCCAggctagctacaacgaTGAGCTGGG (DNA TCCAGTCCAGGCTAGCTACAACGATGAGCTGGG; DNA, backbone and methylation of C not given here)”, the Validated cleavage was “validated for mediating cleavage of p21 mRNA”. “DNAzyme 1786: SEQ ID NO: 60: GAGGTAGAAggctagctacaacgaTAGGGTGCC (DNA GAGGTAGAAGGCTAGCTACAACGATAGGGTGCC; DNA, backbone and methylation of C not given here)” was tested, and the Validated cleavage was “validated for mediating cleavage of p21 mRNA”. With “DNAzyme 1838: SEQ ID NO: 63: GGACCCTCAggctagctacaacgaCCCCACAGC (DNA GGACCCTCAGGCTAGCTACAACGACCCCACAGC; DNA, backbone and methylation of C not given here)” the Validated cleavage was “validated for mediating cleavage of p21 mRNA”. In the case of “DNAzyme 1851: SEQ ID NO: 64: GTGCCACCAggctagctacaacgaATGGGACCC (DNA GTGCCACCAGGCTAGCTACAACGAATGGGACCC; DNA, backbone and methylation of C not given here)”, the Validated cleavage is reported as “validated for mediating cleavage of p21 mRNA”. In the case of “DNAzyme 1854: SEQ ID NO: 65: CCTGTGCCAggctagctacaacgaCACATGGGA (DNA CCTGTGCCAGGCTAGCTACAACGACACATGGGA; DNA, backbone and methylation of C not given here)”, the Validated cleavage is reported as “validated for mediating cleavage of p21 mRNA”. In the case of “DNAzyme 1947: SEQ ID NO: 69: GCTGGACGAggctagctacaacgaTTGAGGGGC (DNA GCTGGACGAGGCTAGCTACAACGATTGAGGGGC; DNA, backbone and methylation of C not given here)”, the Validated cleavage is reported as “validated for mediating cleavage of p21 mRNA”. For “DNAzyme 1967: SEQ ID NO: 70: TGGGGTGGAggctagctacaacgaGAGGAAGGT (DNA TGGGGTGGAGGCTAGCTACAACGAGAGGAAGGT; DNA, backbone and methylation of C not given here)”, the Validated cleavage was “validated for mediating cleavage of p21 mRNA”. With “DNAzyme 1976: SEQ ID NO: 71: GGGGAGGGAggctagctacaacgaGGGGTGGAT (DNA GGGGAGGGAGGCTAGCTACAACGAGGGGTGGAT; DNA, backbone and methylation of C not given here)” the Validated cleavage was “validated for mediating cleavage of p21 mRNA”. With “DNAzyme 1986: SEQ ID NO: 72: GCAATGAAtccgagccggacgaGGGGAGGGA (DNA GCAATGAATCCGAGCCGGACGAGGGGAGGGA; DNA, backbone and methylation of C not given here)” the Validated cleavage was “validated for mediating cleavage of p21 mRNA”. For “DNAzyme 1987: SEQ ID NO: 73: TGCAATGAAggctagctacaacgaTGGGGAGGG (DNA TGCAATGAAGGCTAGCTACAACGATGGGGAGGG; DNA, backbone and methylation of C not given here)”, the Validated cleavage was “validated for mediating cleavage of p21 mRNA”. In the case of “DNAzyme 1991: SEQ ID NO: 74: AAAGTGCAAggctagctacaacgaGAACTGGGG (DNA AAAGTGCAAGGCTAGCTACAACGAGAACTGGGG; DNA, backbone and methylation of C not given here)”, the Validated cleavage is reported as “validated for mediating cleavage of p21 mRNA”. With “DNAzyme 2266: SEQ ID NO: 78: AGAGGTTTAggctagctacaacgaAGTCTAGGT (DNA AGAGGTTTAGGCTAGCTACAACGAAGTCTAGGT; DNA, backbone and methylation of C not given here)” the Validated cleavage was “validated for mediating cleavage of p21 mRNA”.
